The values below come from US20130089512A1, “HETEROARYL IMIDAZOLONE DERIVATIVES AS JAK INHIBITORS” (priority 2010, published 2013).

One assay deals with human JAK1 (aa 850-1154) (Homo sapiens, UniProt P23458). Nature of the assay: In vitro JAK kinase assay (TR-FRET), JAK1.
The next assay has as its target human JAK2 (aa 826-1132) (Homo sapiens, UniProt O60674). Nature of the assay: In vitro JAK kinase assay (TR-FRET), JAK2.
In another assay the target is human JAK3 (aa 795-1124) (Homo sapiens, UniProt P52333). Nature of the assay: In vitro JAK kinase assay (TR-FRET), JAK3.
Sequence of human JAK3 (aa 795-1124) (P52333 795-1124): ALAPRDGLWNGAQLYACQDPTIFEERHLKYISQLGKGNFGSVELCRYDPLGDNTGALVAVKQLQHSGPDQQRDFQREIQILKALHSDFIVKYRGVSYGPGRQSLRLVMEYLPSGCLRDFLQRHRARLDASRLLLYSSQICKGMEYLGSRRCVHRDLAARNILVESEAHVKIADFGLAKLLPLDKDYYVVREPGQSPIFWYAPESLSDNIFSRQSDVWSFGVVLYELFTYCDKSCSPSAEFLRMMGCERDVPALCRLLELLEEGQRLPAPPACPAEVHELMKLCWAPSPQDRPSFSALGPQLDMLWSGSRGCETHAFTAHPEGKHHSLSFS

Sequence of human JAK2 (aa 826-1132) (O60674 826-1132): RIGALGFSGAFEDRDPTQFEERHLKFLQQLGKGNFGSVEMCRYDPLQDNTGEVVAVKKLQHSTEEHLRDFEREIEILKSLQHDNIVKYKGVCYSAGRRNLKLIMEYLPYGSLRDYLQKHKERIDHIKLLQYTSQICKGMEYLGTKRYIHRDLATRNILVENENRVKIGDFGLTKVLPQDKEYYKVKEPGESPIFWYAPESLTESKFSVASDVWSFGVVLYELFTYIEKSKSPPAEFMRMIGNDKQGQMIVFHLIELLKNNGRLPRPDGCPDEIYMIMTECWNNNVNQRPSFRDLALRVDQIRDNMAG
Sequence of human JAK1 (aa 850-1154) (P23458 850-1154): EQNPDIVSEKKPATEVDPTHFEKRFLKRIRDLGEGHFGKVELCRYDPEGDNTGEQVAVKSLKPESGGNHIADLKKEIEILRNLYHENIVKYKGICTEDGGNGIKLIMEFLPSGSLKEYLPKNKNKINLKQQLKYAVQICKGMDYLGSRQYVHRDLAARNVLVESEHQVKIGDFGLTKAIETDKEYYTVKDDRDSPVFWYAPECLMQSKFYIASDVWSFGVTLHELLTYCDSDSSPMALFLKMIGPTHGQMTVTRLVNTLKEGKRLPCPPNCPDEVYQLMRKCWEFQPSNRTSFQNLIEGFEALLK
Protocol for human JAK1 (aa 850-1154): (§1) The enzymatic activity was assayed using as substrate a biotinylated peptide, poly (GT)-Biotin (CisBio). […] The degree of phosphorylation was detected by TR-FRET (time-resolved fluorescence energy transfer). […] The enzymatic reactions took place for 30 minutes at room temperature. […] Incubate for 3 h and read on Victor 2V spectrofluorometer (PerkinElmer) set to read fluorescence resonance energy transfer.
Protocol for human JAK2 (aa 826-1132): as §1
Protocol for human JAK3 (aa 795-1124): as §1

For `C[C@@H]1CCCC[C@@H]1n1c(=O)[nH]c2cnc(-c3cnc4ccc(C#N)cn34)nc21` [Example 3, 3-(9-((1S,2R)-2-Methylcyclohexyl)-8-oxo-8,9-dihydro-7H-purin-2-yl)imidazo[1,2-a]pyridine-6-carbonitrile], the IC50 against human JAK1 (aa 850-1154) is 100 to 1000 nM.
For the molecule `O=c1[nH]c2cnc(-c3cnc4ccc(F)cn34)nc2n1[C@H](CO)c1ccc(F)cn1` [Example 35, (S)-2-(6-Fluoroimidazo[1,2-a]pyridin-3-yl)-9-(1-(5-fluoropyridin-2-yl)-2-hydroxyethyl)-7H-purin-8(9H)-one], the half-maximal inhibitory concentration (IC50) was 100 to 1000 nM at human JAK1 (aa 850-1154), below 100 nM against human JAK2 (aa 826-1132) and 100 to 1000 nM on human JAK3 (aa 795-1124).
Take `N#CC1(n2c(=O)[nH]c3cnc(-c4cnc5ccc(F)cn45)nc32)CCCCC1` [Example 36, 1-(2-(6-Fluoroimidazo[1,2-a]pyridin-3-yl)-8-oxo-7H-purin-9(8H)-yl)cyclohexane carbonitrile]: the IC50 is above 1000 nM on human JAK1 (aa 850-1154), below 100 nM at human JAK2 (aa 826-1132) and 100 to 1000 nM against human JAK3 (aa 795-1124).
In the same order, the values of `CC1(C)CC(n2c(=O)[nH]c3cnc(-c4cnc5ccc(F)cn45)nc32)c2cccnc2O1` (stereo not shown) [Example 42, 9-(2,2-Dimethyl-3,4-dihydro-2H-pyrano[2,3-b]pyridin-4-yl)-2-(6-fluoroimidazo[1,2-a]pyridin-3-yl)-7H-purin-8(9H)-one] are above 1000 nM, 100 to 1000 nM and 100 to 1000 nM.
For `C[C@H](CC(N)=O)n1c(=O)[nH]c2cnc(-c3cnc4ccc(F)cn34)nc21` [Example 58, (R)-3-(2-(6-Fluoroimidazo[1,2-a]pyridin-3-yl)-8-oxo-7H-purin-9(8H)-yl)butanamide] the same measures were above 1000 nM, 100 to 1000 nM and 100 to 1000 nM.
In the same order, the values of `CS(=O)(=O)N1CCC[C@@H](n2c(=O)[nH]c3cnc(-c4cnc5ccc(F)cn45)nc32)C1` [Example 62, 2-(6-Fluoroimidazo[1,2-a]pyridin-3-yl)-9-[(3R)-1-(methylsulfonyl)piperidin-3-yl]-7,9-dihydro-8H-purin-8-one] are above 1000 nM, below 100 nM and 100 to 1000 nM.
Take `CS(=O)(=O)N1CCC(n2c(=O)[nH]c3ccc(-c4cnc5ccc(F)cn45)nc32)CC1` [Example 71, 5-(6-Fluoroimidazo[1,2-a]pyridin-3-yl)-3-[1-(methylsulfonyl)piperidin-4-yl]-1,3-dihydro-2H-imidazo[4,5-b]pyridin-2-one]: the IC50 at human JAK1 (aa 850-1154) was above 1000 nM; against human JAK2 (aa 826-1132), below 100 nM; at human JAK3 (aa 795-1124) it was below 100 nM.
Regarding `O=c1[nH]c2cc(F)c(-c3cnc4ccc(F)cn34)nc2n1C1CCOCC1` [Example 73, 6-Fluoro-5-(6-fluoroimidazo[1,2-a]pyridin-3-yl)-3-(tetrahydro-2H-pyran-4-yl)-1,3-dihydro-2H-imidazo[4,5-b]pyridin-2-one], the IC50 is 100 to 1000 nM against human JAK1 (aa 850-1154), below 100 nM against human JAK2 (aa 826-1132) and below 100 nM against human JAK3 (aa 795-1124).
As to `C[C@H](c1ccc(F)cn1)n1c(=O)[nH]c2cnc(-c3cnn4ccncc34)nc21` [Example 79, (R)-9-(1-(5-Fluoropyridin-2-yl)ethyl)-2-(pyrazolo[1,5-a]pyrazin-3-yl)-7H-purin-8(9H)-one], the half-maximal inhibitory concentration (IC50) at human JAK1 (aa 850-1154), on human JAK2 (aa 826-1132) and on human JAK3 (aa 795-1124) was below 100 nM throughout.
Turning to `O=c1[nH]c2cnc(-c3cnn4ccncc34)nc2n1CC1CCOCC1` [Example 80, 2-(Pyrazolo[1,5-a]pyrazin-3-yl)-9-((tetrahydro-2H-pyran-4-yl)methyl)-7H-purin-8(9H)-one], the IC50 against human JAK1 (aa 850-1154), at human JAK2 (aa 826-1132) and against human JAK3 (aa 795-1124) was 100 to 1000 nM in each case.
With `O=c1[nH]c2cnc(-c3cnn4ccncc34)nc2n1C1CCC(F)(F)CC1` [Example 81, 9-(4,4-Difluorocyclohexyl)-2-(pyrazolo[1,5-a]pyrazin-3-yl)-7H-purin-8(9H)-one], the IC50 on human JAK1 (aa 850-1154), against human JAK2 (aa 826-1132) and against human JAK3 (aa 795-1124) was below 100 nM in each case.
With `O=c1[nH]c2cnc(-c3cnn4cc(F)ccc34)nc2n1C1CCOCC1` [Example 89, 2-(6-Fluoropyrazolo[1,5-a]pyridin-3-yl)-9-(tetrahydro-2H-pyran-4-yl)-7H-purin-8(9H)-one], the IC50 against human JAK1 (aa 850-1154) was above 1000 nM; against human JAK2 (aa 826-1132), below 100 nM; against human JAK3 (aa 795-1124), below 100 nM.
`O=c1[nH]c2cnc(-c3cnn4cccnc34)cc2n1C1CCOCC1` [Example 92, 6-(Pyrazolo[1,5-a]pyrimidin-3-yl)-1-(tetrahydro-2H-pyran-4-yl)-1H-imidazo[4,5-c]pyridin-2(3H)-one]: the values for the IC50 against human JAK1 (aa 850-1154), at human JAK2 (aa 826-1132) and against human JAK3 (aa 795-1124) were 100 to 1000 nM, below 100 nM and 100 to 1000 nM, respectively.
With `O=c1[nH]c2c(N3CCNCC3)nc(-c3cnc4ccc(F)cn34)nc2n1C1CCOCC1` [Example 98, 2-(6-Fluoroimidazo[1,2-a]pyridin-3-yl)-6-(piperazin-1-yl)-9-(tetrahydro-2H-pyran-4-yl)-7H-purin-8(9H)-one], the figures for the IC50 against human JAK1 (aa 850-1154), at human JAK2 (aa 826-1132) and at human JAK3 (aa 795-1124) were above 1000 nM, below 100 nM and below 100 nM, respectively.
